From PubChem BioAssay (NCI)
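Each compound was tested at five concentrations against cells in 96-well plates for 48 hours. TGI: concentration producing complete growth inhibition.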

Columns and labels:
Assay in all cases: NCI tumour cell line growth inhibition, 48 h
786-0 renal = tested on: 786-0 renal
A498 renal = tested on: A498 renal
A549 NSCLC = tested on: A549 NSCLC
ACHN renal = tested on: ACHN renal
CAKI-1 renal = tested on: CAKI-1 renal
CCRF-CEM leukemia = tested on: CCRF-CEM leukemia
COLO 205 colon = tested on: COLO 205 colon
DLD-1 colon = tested on: DLD-1 colon
DU-145 prostate = tested on: DU-145 prostate
HCC-2998 colon = tested on: HCC-2998 colon
HCT-116 colon = tested on: HCT-116 colon
HCT-15 colon = tested on: HCT-15 colon
HL-60(TB) leukemia = tested on: HL-60(TB) leukemia
HOP-18 NSCLC = tested on: HOP-18 NSCLC
HOP-92 NSCLC = tested on: HOP-92 NSCLC
HT29 colon = tested on: HT29 colon
IGROV1 ovarian = tested on: IGROV1 ovarian
K-562 leukemia = tested on: K-562 leukemia
KM12 colon = tested on: KM12 colon
KM20L2 colon = tested on: KM20L2 colon
LOX IMVI melanoma = tested on: LOX IMVI melanoma
LXFL 529 NSCLC = tested on: LXFL 529 NSCLC
M14 melanoma = tested on: M14 melanoma
M19-MEL melanoma = tested on: M19-MEL melanoma
MALME-3M melanoma = tested on: MALME-3M melanoma
MOLT-4 leukemia = tested on: MOLT-4 leukemia
NCI-H226 lung = tested on: NCI-H226 lung
NCI-H23 lung = tested on: NCI-H23 lung
NCI-H460 lung = tested on: NCI-H460 lung
NCI-H522 lung = tested on: NCI-H522 lung
OVCAR-3 ovarian = tested on: OVCAR-3 ovarian
OVCAR-4 ovarian = tested on: OVCAR-4 ovarian
OVCAR-5 ovarian = tested on: OVCAR-5 ovarian
OVCAR-8 ovarian = tested on: OVCAR-8 ovarian
RPMI-8226 leukemia = tested on: RPMI-8226 leukemia
RXF 393 renal = tested on: RXF 393 renal
RXF-631 renal = tested on: RXF-631 renal
SF-268 CNS = tested on: SF-268 CNS
SF-295 CNS = tested on: SF-295 CNS
SF-539 CNS = tested on: SF-539 CNS
SK-MEL-2 melanoma = tested on: SK-MEL-2 melanoma
SK-MEL-28 melanoma = tested on: SK-MEL-28 melanoma
SK-MEL-5 melanoma = tested on: SK-MEL-5 melanoma
SK-OV-3 ovarian = tested on: SK-OV-3 ovarian
SN12C renal = tested on: SN12C renal
SNB-19 CNS = tested on: SNB-19 CNS
SNB-75 CNS = tested on: SNB-75 CNS
SR leukemia = tested on: SR leukemia
SW-620 colon = tested on: SW-620 colon
TK-10 renal = tested on: TK-10 renal
U251 CNS = tested on: U251 CNS
UACC-257 melanoma = tested on: UACC-257 melanoma
UACC-62 melanoma = tested on: UACC-62 melanoma
UO-31 renal = tested on: UO-31 renal
XF 498 CNS = tested on: XF 498 CNS
EKVX NSCLC = tested on: EKVX NSCLC
DMS 114 small cell lung = tested on: DMS 114 small cell lung
HOP-62 NSCLC = tested on: HOP-62 NSCLC
SNB-78 CNS = tested on: SNB-78 CNS

Measured: TGI

CCOC(=O)C=C1CCC2(CC1)OCCO2
not listed: EKVX NSCLC | DMS 114 small cell lung | HOP-62 NSCLC | SNB-78 CNS
> 100 µM: all other assays above

COc1cc2c[n+]3ccc4cc(OC)c(OC)cc4c3cc2cc1O
not listed: CAKI-1 renal | COLO 205 colon | DU-145 prostate | NCI-H226 lung | OVCAR-3 ovarian | OVCAR-4 ovarian | DMS 114 small cell lung | HOP-62 NSCLC | SNB-78 CNS
> 100 µM: all other assays above

CON(C)C(=O)CCCO
not listed: A498 renal | DU-145 prostate | HCC-2998 colon | LOX IMVI melanoma | OVCAR-5 ovarian | SK-OV-3 ovarian | SNB-78 CNS
> 100 µM: all other assays above

CC1=C(C(=O)CC(=O)C(=O)Nc2cccc(Cl)c2C)Sc2ccccc2N1
not listed: A498 renal | COLO 205 colon | DU-145 prostate | KM20L2 colon | SNB-75 CNS
> 100 µM: all other assays above

CC1=NC(C(=O)O)Cc2c1[nH]c1ccccc21 (stereo not drawn)
not listed: 786-0 renal | A549 NSCLC | DU-145 prostate | HCC-2998 colon | HCT-116 colon | KM12 colon | OVCAR-4 ovarian | OVCAR-5 ovarian | RXF 393 renal | SR leukemia | UACC-257 melanoma | HOP-62 NSCLC
> 100 µM: all other assays above
